Data as given in PMC4414346, “Crystal Structure of Allophycocyanin from Marine Cyanobacterium Phormidium sp. A09DM” (PLoS ONE, 2015).

Target: T1, Phormidium APC (allophycocyanin) (Phormidium rubidum, UniProt A0A078K1U6+A0A078K4M9)
T1 construct: gene apcA; native purification from the cyanobacterium; no tags; alpha 18064 Da and beta 18011 Da with chromophore; trimer of alpha-beta monomers (118 kDa); N-methylasparagine in beta; GenBank entries partial (alpha 9-161, beta 1-155), corrected in structure: alpha N10K, R49C, D145N, beta E35K
Test: X-ray crystallography, […] A
Type: binding
Conditions: covalent; one chromophore on Cys-81 of alpha and one on Cys-81 of beta; alpha-chromophore site also lined by beta residues in the trimer; crystals pH 8.5, PEG 6000

`C/C=C1/C(=C/c2[nH]c(/C=C3N=C(/C=C4\NC(=O)C(CC)=C4C)C(C)=C\3CCC(=O)O)c(CCC(=O)O)c2C)NC(=O)[C@@H]1C` [phycocyanobilin] was tested. Which “X-ray crystallography, 2.51 A” value did it give?
The value was “One PCB chromophore is covalently bonded to the conserved Cys-81 of α-subunit (α-chromophore)”.
